From the NIST ThermoML archive (doi:10.1021/acs.jced.6b00786)
Numbers after ± are expanded uncertainties.

Experiment: xn = mol fraction of the nth substance listed
Details: 101 kPa, Liquid, Vibrating tube method

For `NC=O` [formamide] + O, the mass density (288.15 K, x1 = 0.7495) was 1122.53 ± 0.15 kg/m3, the mass density (288.15 K, x1 = 0.7931) was 1125.6 ± 0.16 kg/m3 and the mass density (288.15 K, x1 = 0.8601) was 1129.96 ± 0.17 kg/m3. The mass density (288.15 K, x1 = 0.8996) was 1132.4 ± 0.18 kg/m3, the mass density (288.15 K, x1 = 0.948) was 1135.23 ± 0.18 kg/m3 and the mass density (288.15 K, x1 = 0.9753) was 1136.78 ± 0.19 kg/m3. For the same compound, the mass density (288.15 K, x1 = 0.9847) was 1137.31 ± 0.19 kg/m3, the mass density (288.15 K, x1 = 0.9897) was 1137.59 ± 0.19 kg/m3 and the mass density (288.15 K, x1 = 0.9959) was 1137.94 ± 0.2 kg/m3. It also gave a mass density (288.15 K, x1 = 1) of 1138.17 ± 0.19 kg/m3, a mass density (298.15 K, x1 = 0.00244) of 997.942 ± 0.044 kg/m3 and a mass density (298.15 K, x1 = 0.00515) of 998.905 ± 0.044 kg/m3. For the same compound, the mass density (298.15 K, x1 = 0.0086) was 1000.14 ± 0.044 kg/m3, the mass density (298.15 K, x1 = 0.02032) was 1004.2 ± 0.046 kg/m3 and the mass density (298.15 K, x1 = 0.03478) was 1009 ± 0.049 kg/m3. For the same compound, the mass density (298.15 K, x1 = 0.04976) was 1013.73 ± 0.052 kg/m3, the mass density (298.15 K, x1 = 0.06674) was 1018.77 ± 0.055 kg/m3 and the mass density (298.15 K, x1 = 0.08229) was 1023.18 ± 0.057 kg/m3. The mass density (298.15 K, x1 = 0.1171) was 1032.35 ± 0.065 kg/m3, the mass density (298.15 K, x1 = 0.1745) was 1045.52 ± 0.073 kg/m3 and the mass density (298.15 K, x1 = 0.2169) was 1053.94 ± 0.079 kg/m3. The mass density (298.15 K, x1 = 0.2557) was 1060.92 ± 0.084 kg/m3, the mass density (298.15 K, x1 = 0.3026) was 1068.56 ± 0.09 kg/m3 and the mass density (298.15 K, x1 = 0.351) was 1075.56 ± 0.096 kg/m3. The mass density (298.15 K, x1 = 0.4027) was 1082.34 ± 0.1 kg/m3, the mass density (298.15 K, x1 = 0.4487) was 1087.78 ± 0.11 kg/m3 and the mass density (298.15 K, x1 = 0.4886) was 1092.05 ± 0.11 kg/m3. For the same compound, the mass density (298.15 K, x1 = 0.5601) was 1099.14 ± 0.12 kg/m3, the mass density (298.15 K, x1 = 0.5916) was 1102.04 ± 0.13 kg/m3 and the mass density (298.15 K, x1 = 0.6674) was 1108.34 ± 0.14 kg/m3. For the same compound, the mass density (298.15 K, x1 = 0.7066) was 1111.34 ± 0.14 kg/m3, the mass density (298.15 K, x1 = 0.7495) was 1114.37 ± 0.15 kg/m3 and the mass density (298.15 K, x1 = 0.7931) was 1117.37 ± 0.15 kg/m3. For the same compound, the mass density (298.15 K, x1 = 0.8601) was 1121.65 ± 0.17 kg/m3, the mass density (298.15 K, x1 = 0.8996) was 1124.05 ± 0.17 kg/m3 and the mass density (298.15 K, x1 = 0.948) was 1126.82 ± 0.18 kg/m3. The mass density (298.15 K, x1 = 0.9753) was 1128.35 ± 0.18 kg/m3, the mass density (298.15 K, x1 = 0.9847) was 1128.87 ± 0.18 kg/m3 and the mass density (298.15 K, x1 = 0.9897) was 1129.15 ± 0.18 kg/m3. For the same compound, the mass density (298.15 K, x1 = 0.9959) was 1129.5 ± 0.19 kg/m3, the mass density (298.15 K, x1 = 1) was 1129.73 ± 0.19 kg/m3 and the mass density (308.15 K, x1 = 0.00244) was 994.873 ± 0.046 kg/m3. The mass density (308.15 K, x1 = 0.00515) was 995.763 ± 0.046 kg/m3, the mass density (308.15 K, x1 = 0.0086) was 996.897 ± 0.045 kg/m3 and the mass density (308.15 K, x1 = 0.02032) was 1000.68 ± 0.044 kg/m3. For the same compound, the mass density (308.15 K, x1 = 0.03478) was 1005.15 ± 0.047 kg/m3, the mass density (308.15 K, x1 = 0.04976) was 1009.5 ± 0.05 kg/m3 and the mass density (308.15 K, x1 = 0.06674) was 1014.31 ± 0.053 kg/m3. It also gave a mass density (308.15 K, x1 = 0.08229) of 1018.42 ± 0.055 kg/m3, a mass density (308.15 K, x1 = 0.1171) of 1027.15 ± 0.062 kg/m3 and a mass density (308.15 K, x1 = 0.1745) of 1039.6 ± 0.07 kg/m3. For the same compound, the mass density (308.15 K, x1 = 0.2169) was 1047.65 ± 0.076 kg/m3, the mass density (308.15 K, x1 = 0.2557) was 1054.32 ± 0.081 kg/m3 and the mass density (308.15 K, x1 = 0.3026) was 1061.67 ± 0.087 kg/m3. The mass density (308.15 K, x1 = 0.351) was 1068.41 ± 0.093 kg/m3, the mass density (308.15 K, x1 = 0.4027) was 1074.96 ± 0.099 kg/m3 and the mass density (308.15 K, x1 = 0.4487) was 1080.22 ± 0.1 kg/m3. The mass density (308.15 K, x1 = 0.4886) was 1084.37 ± 0.11 kg/m3, the mass density (308.15 K, x1 = 0.5601) was 1091.28 ± 0.12 kg/m3 and the mass density (308.15 K, x1 = 0.5916) was 1094.1 ± 0.12 kg/m3. It also gave a mass density (308.15 K, x1 = 0.6674) of 1100.24 ± 0.13 kg/m3, a mass density (308.15 K, x1 = 0.7066) of 1103.2 ± 0.14 kg/m3 and a mass density (308.15 K, x1 = 0.7495) of 1106.15 ± 0.14 kg/m3. It also gave a mass density (308.15 K, x1 = 0.7931) of 1109.09 ± 0.15 kg/m3, a mass density (308.15 K, x1 = 0.8601) of 1113.29 ± 0.16 kg/m3 and a mass density (308.15 K, x1 = 0.8996) of 1115.65 ± 0.17 kg/m3. It also gave a mass density (308.15 K, x1 = 0.948) of 1118.38 ± 0.17 kg/m3, a mass density (308.15 K, x1 = 0.9753) of 1119.88 ± 0.18 kg/m3 and a mass density (308.15 K, x1 = 0.9847) of 1120.39 ± 0.18 kg/m3. For the same compound, the mass density (308.15 K, x1 = 0.9897) was 1120.66 ± 0.18 kg/m3, the mass density (308.15 K, x1 = 0.9959) was 1121.01 ± 0.19 kg/m3 and the mass density (308.15 K, x1 = 1) was 1121.22 ± 0.18 kg/m3. It also gave a mass density (323.15 K, x1 = 0.00244) of 988.848 ± 0.049 kg/m3, a mass density (323.15 K, x1 = 0.00515) of 989.627 ± 0.049 kg/m3 and a mass density (323.15 K, x1 = 0.0086) of 990.671 ± 0.049 kg/m3. For the same compound, the mass density (323.15 K, x1 = 0.02032) was 994.128 ± 0.047 kg/m3, the mass density (323.15 K, x1 = 0.03478) was 998.15 ± 0.046 kg/m3 and the mass density (323.15 K, x1 = 0.04976) was 1002.11 ± 0.046 kg/m3. For the same compound, the mass density (323.15 K, x1 = 0.06674) was 1006.45 ± 0.049 kg/m3, the mass density (323.15 K, x1 = 0.08229) was 1010.31 ± 0.051 kg/m3 and the mass density (323.15 K, x1 = 0.1171) was 1018.36 ± 0.058 kg/m3. It also gave a mass density (323.15 K, x1 = 0.1745) of 1030.08 ± 0.065 kg/m3, a mass density (323.15 K, x1 = 0.2169) of 1037.62 ± 0.071 kg/m3 and a mass density (323.15 K, x1 = 0.2557) of 1043.94 ± 0.075 kg/m3. For the same compound, the mass density (323.15 K, x1 = 0.3026) was 1050.89 ± 0.081 kg/m3, the mass density (323.15 K, x1 = 0.351) was 1057.31 ± 0.087 kg/m3 and the mass density (323.15 K, x1 = 0.4027) was 1063.57 ± 0.093 kg/m3. The mass density (323.15 K, x1 = 0.4487) was 1068.62 ± 0.099 kg/m3, the mass density (323.15 K, x1 = 0.4886) was 1072.62 ± 0.1 kg/m3 and the mass density (323.15 K, x1 = 0.5601) was 1079.26 ± 0.11 kg/m3. The mass density (323.15 K, x1 = 0.5916) was 1081.99 ± 0.12 kg/m3, the mass density (323.15 K, x1 = 0.6674) was 1087.95 ± 0.13 kg/m3 and the mass density (323.15 K, x1 = 0.7066) was 1090.81 ± 0.13 kg/m3. The mass density (323.15 K, x1 = 0.7495) was 1093.69 ± 0.14 kg/m3, the mass density (323.15 K, x1 = 0.7931) was 1096.56 ± 0.14 kg/m3 and the mass density (323.15 K, x1 = 0.8601) was 1100.66 ± 0.15 kg/m3. It also gave a mass density (323.15 K, x1 = 0.8996) of 1102.97 ± 0.16 kg/m3, a mass density (323.15 K, x1 = 0.948) of 1105.65 ± 0.17 kg/m3 and a mass density (323.15 K, x1 = 0.9753) of 1107.13 ± 0.17 kg/m3. For the same compound, the mass density (323.15 K, x1 = 0.9847) was 1107.62 ± 0.17 kg/m3, the mass density (323.15 K, x1 = 0.9897) was 1107.9 ± 0.17 kg/m3 and the mass density (323.15 K, x1 = 0.9959) was 1108.24 ± 0.18 kg/m3. It also gave a mass density (323.15 K, x1 = 1) of 1108.46 ± 0.17 kg/m3, a mass density (333.15 K, x1 = 0.00244) of 983.879 ± 0.052 kg/m3 and a mass density (333.15 K, x1 = 0.00515) of 984.704 ± 0.052 kg/m3. The mass density (333.15 K, x1 = 0.0086) was 985.696 ± 0.051 kg/m3, the mass density (333.15 K, x1 = 0.02032) was 988.955 ± 0.05 kg/m3 and the mass density (333.15 K, x1 = 0.03478) was 992.755 ± 0.048 kg/m3. For the same compound, the mass density (333.15 K, x1 = 0.04976) was 996.5 ± 0.047 kg/m3, the mass density (333.15 K, x1 = 0.06674) was 1000.6 ± 0.046 kg/m3 and the mass density (333.15 K, x1 = 0.08229) was 1004.2 ± 0.048 kg/m3. It also gave a mass density (333.15 K, x1 = 0.1171) of 1011.84 ± 0.055 kg/m3, a mass density (333.15 K, x1 = 0.1745) of 1023.19 ± 0.062 kg/m3 and a mass density (333.15 K, x1 = 0.2169) of 1030.56 ± 0.067 kg/m3. It also gave a mass density (333.15 K, x1 = 0.2557) of 1036.75 ± 0.072 kg/m3, a mass density (333.15 K, x1 = 0.3026) of 1043.42 ± 0.077 kg/m3 and a mass density (333.15 K, x1 = 0.351) of 1049.67 ± 0.083 kg/m3. The mass density (333.15 K, x1 = 0.4027) was 1055.76 ± 0.089 kg/m3, the mass density (333.15 K, x1 = 0.4487) was 1060.68 ± 0.094 kg/m3 and the mass density (333.15 K, x1 = 0.4886) was 1064.58 ± 0.099 kg/m3. The mass density (333.15 K, x1 = 0.5601) was 1071.15 ± 0.11 kg/m3, the mass density (333.15 K, x1 = 0.5916) was 1073.78 ± 0.11 kg/m3 and the mass density (333.15 K, x1 = 0.6674) was 1079.63 ± 0.12 kg/m3. For the same compound, the mass density (333.15 K, x1 = 0.7066) was 1082.46 ± 0.13 kg/m3, the mass density (333.15 K, x1 = 0.7495) was 1085.28 ± 0.13 kg/m3 and the mass density (333.15 K, x1 = 0.7931) was 1088.11 ± 0.14 kg/m3. The mass density (333.15 K, x1 = 0.8601) was 1092.16 ± 0.15 kg/m3, the mass density (333.15 K, x1 = 0.8996) was 1094.46 ± 0.15 kg/m3 and the mass density (333.15 K, x1 = 0.948) was 1097.1 ± 0.16 kg/m3. The mass density (333.15 K, x1 = 0.9753) was 1098.56 ± 0.16 kg/m3, the mass density (333.15 K, x1 = 0.9847) was 1099.05 ± 0.17 kg/m3 and the mass density (333.15 K, x1 = 0.9897) was 1099.33 ± 0.17 kg/m3. For the same compound, the mass density (333.15 K, x1 = 0.9959) was 1099.68 ± 0.18 kg/m3 and the mass density (333.15 K, x1 = 1) was 1099.88 ± 0.17 kg/m3.
